Results from patent publication US6780883B2, “Amide inhibitors of microsomal triglyceride transfer protein” (Warner-Lambert Company, priority 1998, dated 2004).
Read-outs that look alike come from different tables or passages of the source.

Key:
[1] = target: apolipoprotein(a), [apo(a)], apolipoproteinB-100, [apoB-100], coupling reaction that generates Lp(a) (Homo sapiens, UniProt P04114+P08519); assay: LPABC screen: lipoprotein(a) biochemical coupling assay, Lp(a) content by ELISA; details: recombinant apo(a) 17-kringle (293 cell media) + HepG2 conditioned media, 67 minutes, 37° C., 0.3 to 50 μM compound; read-out: Lp ABC IC50
Description: LPABC Screen The lipoprotein(a), [Lp(a)], biochemical coupling assay (LPABC) is used to characterize inhibitors of the apolipoprotein(a), [apo(a)], apolipoproteinB-100, [apoB-100], coupling reaction that generates Lp(a). Conditioned media from 293 cells (ATCC CRL-1573), permanently transfected with an apo(a) 17-kringle cDNA expression construct (pcDNA-AMP, In Vitrogen, Carlsbad, Calif.) using standard molecular biology techniques, was used as a source of recombinant apo(a) is diluted 1:3 with phosphate buffered saline (PBS) and 90 μL is pipetted into each well of a 96-well plate and placed into a 37° C. incubator for 10 minutes. Twenty microliters of a 0.3 to 50 μM solution of a compound of the present invention in PBS is added to the warmed plate. Ninety microliters of HepG2 (ATCC HB-8065) cell conditioned media diluted 1:3 with PBS is added to the apo(a)/compound mixture and mixed by pipetting up and down 5 times. The reaction is incubated for 67 minutes in a 37° C. incubator. A 100 μL aliquot of the reaction is removed and assayed for its Lp(a) content by an enzyme linked immunosorbent assay (ELISA).

[2] = tested on: Lp(a) production in HepG2^K17 cells; assay: LPA3 screen: inhibition of Lp(a) production in transfected HepG2 cells, Lp(a) in media by ELISA; type: cell-based; details: 8 hours, 0.3 to 50 μM compound, Lp(a) normalized for total protein, read-out: Lp A3 IC50
Description: The LPA3 screen is used to identify compounds that inhibit Lp(a) production. This screen employs permanently transfected HepG2 cells (HepG2^K17) that are generated using an apo(a) 17-kringle cDNA expression construct (pcDNA-AMP, In Vitrogen, Carlsbad, Calif.) in accordance with methods that are well-known in molecular biology.
HepG2^K17 cells are seeded in 96-well plates at a density of 75,000 cells per well in 0.25 mL of Dulbecco's Modified Eagle Media (DMEM) containing 10% fetal bovine serum (FBS). Seeded plates are incubated overnight in a 37° C., 5% CO2/95% 02 incubator. The media is removed, replaced with (1) fresh media, or (2) fresh media plus 0.3 to 50 μM of a compound of the present invention in 20 μL of PBS, and the plates returned to the incubator for 8 hours. After the additional 8 hours of incubation, Lp(a) is assayed in the media by ELISA. Cells are digested with 0.5N NaOH overnight and assayed for total protein. Lp(a) values are normalized for total protein content.

| Molecule | IC50 [1] [µM] | IC50 ([2]; Homo sapiens) [µM] | IC50 [2] [µM] |
| --- | --- | --- | --- |
| COc1ccc(CN(C(=O)c2ccccc2SCc2ccccc2)c2ccc(OC)cc2)cc1 [Example 40, 2-Benzylsulfanyl-N-(4-methoxy-benzyl)-N-(4-methoxy-phenyl)-benzamide] | > 50 | 60.4 | – |
| COc1ccc(C(=O)N(Cc2cc(C(F)(F)F)cc(C(F)(F)F)c2)c2ccccc2)cc1OC [Example 42, N-(3,5-Bis-trifluoromethyl-benzyl)-3,4-dimethoxy-N-phenyl-benzamide] | > 50 | 70.8 | – |
| COc1ccc(C(=O)N(Cc2cc(Br)cc(Br)c2)c2ccccc2)cc1OC [Example 43, N-(3,5-Dibromo-benzyl)-3,4-dimethoxy-N-phenyl-benzamide] | > 50 | 31.6 | – |
| COc1ccc(CN(C(=O)c2ccc(OC)c(OC)c2)c2ccccc2)cc1 [Example 44, 3,4-Dimethoxy-N-(4-methoxy-benzyl)-N-phenyl-benzamide] | > 50 | 51.4 | – |
| COc1ccc(C(=O)N(Cc2ccc3ccccc3c2)c2ccccc2)cc1OC [Example 47, 3,4-Dimethoxy-N-naphthalen-2-ylmethyl-N-phenyl-benzamide] | > 50 | 17.3 | – |
| COc1ccc(C(=O)N(Cc2ccc(C(C)(C)C)cc2)c2ccccc2)cc1OC [Example 48, N-(4-tert-Butyl-benzyl)-3,4-dimethoxy-N-phenyl-benzamide] | > 50 | 30.9 | – |
| CCN(CC)CCCc1ccc(N(Cc2cc(C(C)(C)C)cc(C(C)(C)C)c2)C(=O)c2ccccc2)cc1 [Example 51, N-(3,5-Di-tert-butyl-benzyl)-N-[4-(3-diethylamino-propyl)-phenyl]-benzamide] | > 50 | 24.5 | – |
| CCN(CC)CCCc1ccc(N(Cc2cc(C(F)(F)F)cc(C(F)(F)F)c2)C(=O)c2ccccc2)cc1 [Example 52, N-(3,5-Bis-trifluoromethyl-benzyl)-N-[4-(3-diethylamino-propyl)-phenyl]-benzamide] | > 50 | 12 | – |
| CCN(CC)CCCc1ccc(N(Cc2cc(Br)cc(Br)c2)C(=O)c2ccccc2)cc1 [Example 53, N-(3,5-Dibromo-benzyl)-N-[4-(3-diethylamino-propyl)-phenyl]-benzamide] | > 50 | 14.6 | – |
| CCN(CC)CCCc1ccc(N(Cc2ccc(OC)cc2)C(=O)c2ccccc2)cc1 [Example 54, N-[4-(3-Diethylamino-propyl)-phenyl]-N-(4-methoxy-benzyl)-benzamide] | > 50 | 41.6 | – |
| CCN(CC)CCCc1ccc(N(Cc2cccc(OC)c2)C(=O)c2ccccc2)cc1 [Example 55, N-[4-(3-Diethylamino-propyl)-phenyl]-N-(3-methoxy-benzyl)-benzamide] | > 50 | 37 | – |
| CCN(CC)CCCc1ccc(N(Cc2ccc3ccccc3c2)C(=O)c2ccccc2)cc1 [Example 57, N-[4-(3-Diethylamino-propyl)-phenyl]-N-naphthalen-2-ylmethyl-benzamide] | > 50 | 11.4 | – |
| Cc1ccsc1C(=O)N(Cc1ccc2c(c1)C(C)(C)CCC2(C)C)c1ccc(I)cc1 [Example 59, 3-Methyl-thiophene-2-carboxylic acid (4-iodo-phenyl)-(5,5,8,8-tetramethyl-5,6,7,8-tetrahydro-naphthalen-2-ylmethyl)-amide] | > 50 | 41.1 | – |
| COc1ccc(CN(C(=O)c2ccccc2)c2ccccc2)cc1 [Example 60, N-(4-Methoxy-benzyl)-N-phenyl-benzamide] | > 50 | 28.8 | – |
| COc1cc(C(=O)N(Cc2ccc3ccccc3c2)c2cnc3ccccc3c2)cc(OC)c1OC [Example 62, 3,4,5-Trimethoxy-N-naphthalen-2-ylmethyl-N-quinolin-3-yl-benzamide] | > 50 | 22.2 | – |
| COc1cc(C(=O)N(Cc2ccccc2-c2ccccc2)c2cnc3ccccc3c2)cc(OC)c1OC [Example 64, N-Biphenyl-2-ylmethyl-3,4,5-trimethoxy-N-quinolin-3-yl-benzamide] | > 50 | 13.1 | – |
| COc1ccc(N(Cc2ccc(Cl)c(Cl)c2)C(=O)c2cc(OC)c(OC)c(OC)c2)cn1 [Example 67, N-(3,4-Dichloro-benzyl)-3,4,5-trimethoxy-N-(6-methoxy-pyridin-3-yl)-benzamide] | > 50 | 54.6 | – |
| N-Biphenyl-2-ylmethyl-N-(3,4-dimethoxy-phenyl)-2-phenylmethanesulfinyl- [Example 143] | – | – | 1.6 |

Continued, in another order:

| IC50 [1] [µM] | Molecule | IC50 ([2]; Homo sapiens) [µM] | IC50 [2] [µM] |
| --- | --- | --- | --- |
| > 50 | COc1ccc(C(=O)N(Cc2cc(C(C)(C)C)cc(C(C)(C)C)c2)c2ccccc2)cc1OC [Example 41, N-(3,5-Di-tert-butyl-benzyl)-3,4-dimethoxy-N-phenyl-benzamide] | 49.3 | – |
| > 50 | COc1cccc(CN(C(=O)c2ccc(OC)c(OC)c2)c2ccccc2)c1 [Example 45, 3,4-Dimethoxy-N-(3-methoxy-benzyl)-N-phenyl-benzamide] | 52.1 | – |
| > 50 | COc1ccc(C(=O)N(Cc2ccc(Cl)c(Cl)c2)c2ccccc2)cc1OC [Example 46, N-(3,4-Dichloro-benzyl)-3,4-dimethoxy-N-phenyl-benzamide] | 35.1 | – |
| > 50 | COc1ccc(C(=O)N(Cc2ccccc2-c2ccccc2)c2ccccc2)cc1OC [Example 49, N-Biphenyl-2-ylmethyl-3,4-dimethoxy-N-phenyl-benzamide] | 14 | – |
| > 50 | COc1ccccc1N(Cc1ccc(Cl)c(Cl)c1)C(=O)c1ccccc1 [Example 50, N-(3,4-Dichloro-benzyl)-N-(2-methoxy-phenyl)-benzamide] | 15 | – |
| > 50 | CCN(CC)CCCc1ccc(N(Cc2ccc(Cl)c(Cl)c2)C(=O)c2ccccc2)cc1 [Example 56, N-(3,4-Dichloro-benzyl)-N-[4-(3-diethylamino-propyl)-phenyl]-benzamide] | 11 | – |
| > 50 | CCN(CC)CCCc1ccc(N(Cc2ccccc2-c2ccccc2)C(=O)c2ccccc2)cc1 [Example 58, N-Biphenyl-2-ylmethyl-N-[4-(3-diethylamino-propyl)-phenyl]-benzamide] | 11.6 | – |
| > 50 | COc1cccc(CN(C(=O)c2ccccc2)c2ccccc2)c1 [Example 61, N-(3-Methoxy-benzyl)-N-phenyl-benzamide] | 47.1 | – |
| > 50 | COc1cc(C(=O)N(Cc2ccc(C(C)(C)C)cc2)c2cnc3ccccc3c2)cc(OC)c1OC [Example 63, N-(4-tert-Butyl-benzyl)-3,4,5-trimethoxy-N-quinolin-3-yl-benzamide] | 25.1 | – |
| > 50 | COc1ccc(N(Cc2ccc3c(c2)C(C)(C)CCC3(C)C)C(=O)c2cc(OC)c(OC)c(OC)c2)cn1 [Example 65, 3,4,5-Trimethoxy-N-(6-methoxy-pyridin-3-yl)-N-(5,5,8,8-tetramethyl-5,6,7,8-tetrahydro-naphthalen-2-ylmethyl)-benzamide] | 32.6 | – |
| > 50 | COc1ccc(N(Cc2cc(C(C)(C)C)cc(C(C)(C)C)c2)C(=O)c2cc(OC)c(OC)c(OC)c2)cn1 [Example 66, N-(3,5-Di-tert-butyl-benzyl)-3,4,5-trimethoxy-N-(6-methoxy-pyridin-3-yl)-benzamide] | 19.7 | – |
| > 50 | CC(C)c1ccc(C(=O)N(Cc2ccc3c(c2)C(C)(C)CCC3(C)C)c2cccnc2)cc1 [Example 68, 4-Isopropyl-N-pyridin-3-yl-N-(5,5,8,8-tetramethyl-5,6,7,8-tetrahydro-naphthalen-2-ylmethyl)-benzamide] | 39.8 | – |
| > 50 | COc1cccc(CN(C(=O)c2ccc(C(C)C)cc2)c2cccnc2)c1 [Example 69, 4-Isopropyl-N-(3-methoxy-benzyl)-N-pyridin-3-yl-benzamide] | 18.8 | – |
| > 50 | CC(C)c1ccc(C(=O)N(Cc2ccc3ccccc3c2)c2cccnc2)cc1 [Example 70, 4-Isopropyl-N-naphthalen-2-ylmethyl-N-pyridin-3-yl-benzamide] | 7.2 | – |
| > 50 | CC(C)c1ccc(C(=O)N(Cc2ccc(C(C)(C)C)cc2)c2cccnc2)cc1 [Example 71, N-(4-tert-Butyl-benzyl)-4-isopropyl-N-pyridin-3-yl-benzamide] | 43 | – |
